Where two headings read alike, the source gives them in different places.
What was measured:
[1] = tested on: confluent Caco-2 cells; assay: Cell growth (sulforhodamine B), confluent Caco-2 cells; assay type: cell-based, human; settings: for cell loss: confluent Caco-2, 8 days treatment, geraniol 400 μM (IC30), 5-FU 1 μM
Experimental: (§1) In all experiments, cells were seeded at 6×10^5 cells on culture dishes (100 mm in diameter), or at 4500 cells/well in 96-well plates. Caco-2 and SW620 cells were grown in DMEM supplemented with 3% horse serum, 5 μg/ml transferrin, 5 ng/ml selenium, and 10 μg/ml insulin (TSI defined medium; Invitrogen, SARL, Cergy-Pontoise, France). Geraniol (Sigma-Aldrich, Saint Louis, Mo.) was dissolved in absolute ethanol, and 5-FU (Teva Pharmachemie B.V., Mijdrecht, The Netherlands) was diluted in PBS at a final concentration of 50 mg/ml. The compounds were added to the culture medium 24 h or 7 days after cell seeding (final concentration of ethanol, 0.1%).
In all experimental conditions, culture medium, geraniol, and 5-FU were replaced every 24 h. Cells were harvested after various times, washed three times with phosphate-buffered saline (PBS) (pH 7.2), and kept at −70° C. until assays were performed.
(§2) Cells were seeded in 96-well plates and incubated for different times. Cell growth was stopped by addition of 50 μl of trichloroacetic acid (50%, v/v), and the protein content of each well was determined by staining with sulforhodamine B (Skehan et al., 1990): Absorbance was determined at 490 nm.
The effects of increasing doses of 5-FU alone or in combination with geraniol were determined after treatment for 8 days. […] Geraniol and 5-FU were replaced every 24 h.
Statistical differences between control and geraniol-treated cells were evaluated using the Student's t test. Differences were considered to be significant for values of p<0.05.

[2] = tested on: SW620 cells; assay: Cell growth (sulforhodamine B), growing SW620 cells; assay type: cell-based; settings: Homo sapiens, SW-620, 192 h, 8 days treatment, in the combination geraniol at IC30, read-out: IC50 5-FU, SW620
Experimental: as §1, §2
(§3) The comparative effects of geraniol and 5-FU were studied on exponentially growing Caco-2 and SW620 cells. Cells were cultured as described in Example 1. […]
(§4) The effects of graded doses of 5-FU alone or in combination with geraniol were determined. […]

[3] = tested on: Caco-2 cells; assay: Apoptosis: DNA fragmentation ladder and annexin V-FITC labeling; assay type: cell-based, human; settings: exponentially growing and confluent Caco-2 cells, 24 h; 5-FU 5 μM, geraniol IC30 400 μM
Experimental: After trypsinization, cells were collected by centrifugation and stored at −80° C. Apoptotic DNA was separated from genomic DNA, using the Suicide Track DNA ladder kit (Oncogene Research Products, Cambridge, Mass.). DNA fragments were separated by electrophoresis and stained with ethidium bromide. Apoptosis was further tested by evaluating phosphatidylserine membrane externalization by measuring annexin V-conjugated fluorescein isothiocyanate (FITC) binding using an Annexin V-FITC kit (Medsystems Diagnostics GmbH, Vienna, Austria). Briefly, cells were washed in cold PBS without calcium and, for each sample, 5×10^5 cells were resuspended in 100 μl of reaction buffer (10 μl of binding buffer 10-fold concentrated, 10 μl of propidium iodide, 1 μl of annexin V-FITC, and 79 μl of deionized water. After incubation for 15 min in the dark at room temperature, each sample was diluted with binding buffer to obtain an appropriate final volume for flow cytometry.

[4] = tested on: growing Caco-2 cells; assay: Cell growth (sulforhodamine B), exponentially growing Caco-2 cells; assay type: cell-based, human
Experimental: as §1, §2, §3, §4

[5] = tested on: human colonic tumors TC-118; assay: Growth of 5-FU-resistant human colonic tumors transplanted in nude mice; assay type: in vivo, Swiss nu/nu mice; settings: day 14
Experimental: The effect of geraniol and 5-FU were evaluated in vivo on the growth of 5-FU-resistant human colonic tumors ([…]) transplanted in Swiss nu/nu mice. TC 118 is the hepatic metastasis of a primary human colorectal tumor is used as xénogreffe. Fresh fragments of the tumor are implanted in the subcutaneous tissue of female Swiss nulnu mice of from 5 to 6 weeks. The appearance of the tumor is watched by a bi-weekly exam of mice and the time of appearance is registered. Tumors are detected by palpation as soon as they measure approximately 3×3 mm (that is approximately 15 mm^3). […] Tumors are measured with a calliper rule, 3 times a week, until the sacrifice of the animal. Two perpendicular diameters are measured and the volumes of tumors are calculated according to the following equation: V=A×B^2/2 where A represents the large diameter and B the small diameter. The relative tumoral volume (VTR) is calculated according to the formula: VTR=Volume at day D/Initial volume […] When these molecules were given in combination, they were injected simultaneously. A control group was treated with excipient (NaCl 0.9%). The mean value of the VTR was calculated for every group on every day corresponding to the measure of tumors. The curves of tumoral growth were obtained in every experimental group or for every individual tumor by reporting the values of the VTR as a function of time (expressed in days after the beginning of the treatment). The measures were individually recorded, allowing a follow-up of the tumoral growth. […] Mice not presenting tumors were sacrificed at the same time. The percentage of inhibition of the tumoral growth was calculated at day 14 for the various treatments, according to the formula: (VTR of treated mice/VTR of control mice)×100. Results

[6] = tested on: Caco-2 cells; assay: Electron microscopy of Caco-2 cell morphological differentiation; assay type: cell-based, human; settings: confluent Caco-2 cells (7 days after seeding) treated 4 days; geraniol 400 μM, 5-FU 5 μM
Experimental: Caco-2 and SW620 cells were obtained from the European Collection of Animal Cell Culture (CERDIC, Sophia Antipolis, France) and were cultured in 75-cm^2 Falcon flasks containing Dulbecco's modified Eagle's medium (DMEM) and 25 mM glucose supplemented with 10% heat-inactivated horse serum, 100 U/ml penicillin, and 100 μg/ml streptomycin. Cells were incubated at 37° C. in a humidified atmosphere of 5% CO2 and subcultured after trypsinization (0.5% trypsin/2.6 mM EDTA). They were used for up to 30 to 40 passages.
as §1
In all experimental conditions, culture medium, geraniol, and 5-FU were replaced every 24 h. […]

[7] = tested on: Caco-2 cells; assay: Caco-2 cell growth with CPT-11 and geraniol; assay type: cell-based; settings: Homo sapiens, 192 h, Caco-2, 8 days treatment
Experimental: as §2
The effect of various doses of CPT-11 alone or in combination with geraniol was determined after 8 days of treatment of Caco-2 cells. Concentrations of CPT-11 of from 0.2 to 0.8 μM were tested and geraniol was used at a concentration which induces a 10% inhibition of the cell growth (IC10).

[8] = tested on: Caco-2 cells; assay: Brush-border membrane hydrolase assays (functional differentiation); assay type: cell-based; settings: Homo sapiens, 168 h, 400 μM geraniol, Caco-2 at confluency (7 days after seeding), brush-border membranes
Experimental: Brush-border membranes were isolated as described by Schmitz et al. (1973). Sucrase activity was determined according to Messer and […] (1966) and lactase activity according to Koldovsky et al. (1969). Alkaline phosphatase activity was assayed by the method of Garen and […] (1960), and N-aminopeptidase activity was determined according to Maroux et al. (1973).

[9] = tested on: Caco-2 cells; assay: Cytotoxicity by LDH release into the culture medium; assay type: cell-based, human; settings: confluent Caco-2 (7 days after seeding), 4 days treatment, geraniol alone 400 μM
Experimental: To determine cytotoxicity, cells (4×10^5/well) were seeded on culture dishes (100 nm diameter) and incubated in DMEM culture medium supplemented with 3% FCS. On the 7th day after seeding, cells were incubated with 5-FU (5 μM) alone or together with geraniol (IC30: 400 μM) and 5-FU for 1, 2, 3, and 4 days. Then, cytotoxicity was assessed by determining the release of lactate dehydrogenase (LDH) (Skehan et al., 1990) into the culture medium using the Cyto Tox R nonradioactive cytotoxicity assay kit (Promega, Madison, Wis.).

SMILES	IC50 ([1]; Homo sapiens, Caco-2, 192 h, 8 days treatment, in the combination geraniol at its IC30 (400 μM), read-out: IC50 5-FU, Caco-2 Confluent) [µM]	cell loss [1] [%]	IC50 [2] [µM]	annexin V labeling (flow cytometry) [3]	apoptotic DNA fragmentation ladders [3]	IC50 ([4]; Homo sapiens, Caco-2, 8 days treatment from 24 h after seeding, in the combination geraniol at its IC30 (200 μM), read-out: IC50 5-FU, Caco-2 Growing) [µM]	inhibition of the tumoral growth ([5]; 5-FU alone 20 mg/kg/day i.p. for 5 days)	inhibition of the tumoral growth ([5]; 5-FU alone 40 mg/kg/day i.p. for 5 days) [%]	brush-border microvilli (transmission electron microscopy) [6]	IC50 ([7]; in the combination geraniol at IC10, read-out: IC50 CPT-11) [µM]	IC30 of geraniol ([1]; Caco-2 cells at confluency) [µM]	inhibition at 400 µM ([8]; read-out: inhibition of the increase in alkaline phosphatase activity) [%]	inhibition at 400 µM ([8]; read-out: inhibition of the increase in aminopeptidase activity) [%]	inhibition at 400 µM ([8]; read-out: inhibition of the increase of lactase activity) [%]	inhibition at 400 µM ([8]; read-out: inhibition of the increase of sucrase activity) [%]	IC50 ([7]; in the combination CPT-11 at IC10, read-out: IC50 Geraniol) [µM]	cytotoxic effect (LDH release) [9]	IC30 of geraniol ([4]; growing Caco-2 cells) [µM]	inhibition of the tumoral growth ([5]; geraniol alone 150 mg/kg/day i.p. for 5 days) [%]
O=c1[nH]cc(F)c(=O)[nH]1 [5-FU, 5-fluorouracil]	25	25	2	absence of annexin V labeling	did not exhibit apoptotic DNA fragmentation ladders	0.4	no effect	30	did not modify brush-border membranes										
CCc1c2c(nc3ccc(OC(=O)N4CCC(N5CCCCC5)CC4)cc13)-c1cc3c(c(=O)n1C2)COC(=O)[C@]3(O)CC [CPT-11, irinotecan, reference compound]										0.7									
CC(C)=CCC/C(C)=C/CO [geraniol]		30							microvilli were scarce, and they were shorter		400	~50	~50	~70	~90	200 ± 0.03	no cytotoxic effect	200	26

— patent US20070190191A1, “Use of geraniol in antitumoral therapy” (priority 2003, published 2007)
